For 33 molecules, IC50 results are on record in patent publication US10968217B2, “Tetrahydropyridopyrimidines for the treatment and prophylaxis of hepatitis B virus infection” (Hoffmann-La Roche Inc., priority 2016, dated 2021).

One may read the IC50 as the concentration needed to halve the response being measured.

The test deals with HBsAg. Nature of the test: HBsAg assay (CLIA of secreted HBsAg in HepG2.2.15 culture supernatant). Type of test: cell-based, HBV. As to conditions: Hepatitis B virus, HepG2.2.15, read-out: IC50 (HBsAg assay). The procedure: HepG2.2.15 cells (Acs et al. Proc Natl Acad Sci USA, 84, (1987), 4641-4), a constitutively HBV-expressing cell line were cultured in DMEM+Glutamax-I medium (Invitrogen, Carlsbad, Calif., USA), supplemented with 10% fetal bovine serum (Invitrogen) and G418 (Invitrogen) at a final concentration of 200 mg/L and maintained in 5% CO2 at 37° C.
HepG2.2.15 cells were seeded in duplicate into white, 96-well plates at 1.5×10^4 cells/well. The cells were treated with a three-fold serial dilution series of the compounds in DMSO. The final DMSO concentration in all wells was 1% and DMSO was used as no drug control.
The HBsAg chemiluminescence immunoassay (CLIA) kit (Autobio Diagnostics Co., Zhengzhou, China, Catalog number: CL0310-2) was used to measure the levels of secreted HBV antigens semi-quantitatively. For the detection 50 μL/well culture supernatant was used and HBsAg was quantified using HBsAg chemiluminescence immunoassay (CLIA) kit (Autobio Diagnostics Co., Zhengzhou, China, Catalog number: CL0310-2), 50 μL of the supernatant was transferred to the CLIA assay plate and 50 μL of enzyme conjugate reagent was added into each well. The plates were sealed and gently agitated for 1 hour at room temperature. The supernatant-enzyme-mixture was discarded and wells were washed 6 times with 300 μL of PBS. The residual liquid was removed by plating the CLIA plate right side down on absorbent tissue paper. 25 μL of substrates A and B were added to each well. Luminance was measured using a luminometer (Mithras LB 940 Multimode Microplate Reader) after 10 minutes incubation. Dose-response curves were generated and the IC50 value was extrapolated by using the E-WorkBook Suite (ID Business Solutions Ltd., Guildford, UK). The IC50 was defined as the compound concentration at which HBsAg secretion was reduced by 50% compared to the no drug control.
As to `COc1ccc(C(=O)N2CCc3nc(-c4ccccn4)ncc3C2)cc1Cl` [Example 21, (3-Chloro-4-methoxy-phenyl)-[2-(2-pyridyl)-7,8-dihydro-5H-pyrido[4,3-d]pyrimidin-6-yl]methanone], the IC50 came to 5.07 µM.
For `Cc1csc(C(=O)N2CCc3nc(-c4ccccn4)ncc3C2C)c1` (stereo not drawn) [Example 41, [5-Methyl-2-(2-pyridyl)-7,8-dihydro-5H-pyrido[4,3-d]pyrimidin-6-yl]-(4-methyl-2-thienyl)methanone], the IC50 was 0.38 µM.
With `CCOc1ccc(C(=O)N2CCc3nc(-c4ccccn4)ncc3C2)cc1F` [Example 13, (4-Ethoxy-3-fluoro-phenyl)-[2-(2-pyridyl)-7,8-dihydro-5H-pyrido[4,3-d]pyrimidin-6-yl]methanone], the half-maximal inhibitory concentration (IC50) came to 6.56 µM.
Turning to `COc1cc(C(=O)N2CCc3nc(-c4ccccn4)ncc3C2)ccc1O` [Example 25, (4-Hydroxy-3-methoxy-phenyl)-[2-(2-pyridyl)-7,8-dihydro-5H-pyrido[4,3-d]pyrimidin-6-yl]methanone], the half-maximal inhibitory concentration (IC50) stood at 34.3 µM.
In the case of `Cc1ncoc1C(=O)N1CCc2nc(-c3ccccn3)ncc2C1C` (stereo not drawn) [Example 45, (4-Methyloxazol-5-yl)-[5-methyl-2-(2-pyridyl)-7,8-dihydro-5H-pyrido[4,3-d]pyrimidin-6-yl]methanone] it was 1.43 µM; in that of `O=C(c1ccc(F)cc1)N1CCc2nc(-c3ccccn3)ncc2C1` [Example 8, (4-Fluorophenyl)-[2-(2-pyridyl)-7,8-dihydro-5H-pyrido[4,3-d]pyrimidin-6-yl]methanone], 16.4 µM; in that of `CC1c2cnc(-c3ccccn3)nc2CCN1C(=O)c1ccc(Br)s1` (stereo not drawn) [Example 53, (5-Bromo-2-thienyl)-[5-methyl-2-(2-pyridyl)-7,8-dihydro-5H-pyrido[4,3-d]pyrimidin-6-yl]methanone], 0.51 µM.
With `CC1c2cnc(-c3ccccn3)nc2CCN1C(=O)c1ncc[nH]1` (stereo not drawn) [Example 56, 1H-Imidazol-2-yl-[5-methyl-2-(2-pyridyl)-7,8-dihydro-5H-pyrido[4,3-d]pyrimidin-6-yl]methanone] the figure was 1.08 µM.
In the case of `CC1c2cnc(-c3ccccn3)nc2CCN1C(=O)c1nccs1` (stereo not drawn) [Example 51, [5-Methyl-2-(2-pyridyl)-7,8-dihydro-5H-pyrido[4,3-d]pyrimidin-6-yl]-thiazol-2-yl-methanone] it was 0.627 µM; in that of `COc1cc(F)cc(C(=O)N2CCc3nc(-c4ccccn4)ncc3C2)c1` [Example 38, (3-Fluoro-5-methoxy-phenyl)-[2-(2-pyridyl)-7,8-dihydro-5H-pyrido[4,3-d]pyrimidin-6-yl]methanone], 21.7 µM.
Turning to `COc1ccc(C(=O)N2CCc3nc(-c4ccccn4)ncc3C2)cc1OC` [Example 22, (3,4-Dimethoxyphenyl)-[2-(2-pyridyl)-7,8-dihydro-5H-pyrido[4,3-d]pyrimidin-6-yl]methanone], the IC50 came out at 28 µM.
As for `COCCCOc1ccc(C(=O)N2CCc3nc(-c4ccccn4)ncc3C2)cc1Cl` [Example 24, [3-Chloro-4-(3-methoxypropoxy)phenyl]-[2-(2-pyridyl)-7,8-dihydro-5H-pyrido[4,3-d]pyrimidin-6-yl]methanone], the IC50 was determined as 3.18 µM.
In the case of `CC1c2cnc(-c3ccccn3)nc2CCN1C(=O)c1ccc2[nH]ncc2c1` (stereo not drawn) [Example 47, 1H-indazol-5-yl-[5-methyl-2-(2-pyridyl)-7,8-dihydro-5H-pyrido[4,3-d]pyrimidin-6-yl]methanone], the IC50 stood at 2.47 µM.
Regarding `COc1ccc(C(=O)N2CCc3nc(-c4ccccn4)ncc3C2C)cc1OC` (single isomer, unassigned; (-)) [Example 34, (−)-(3,4-Dimethoxyphenyl)-[5-methyl-2-(2-pyridyl)-7,8-dihydro-5H-pyrido[4,3-d]pyrimidin-6-yl]methanone], the IC50 came out at 1.81 µM.
As to `N#Cc1ccc(C(=O)N2CCc3nc(-c4ccccn4)ncc3C2)cc1` [Example 2, 4-[2-(2-Pyridyl)-7,8-dihydro-5H-pyrido[4,3-d]pyrimidine-6-carbonyl]benzonitrile], the IC50 was determined as 17 µM.
With `O=C(c1ccc(Cl)cc1)N1CCc2nc(-c3ccccn3)ncc2C1` [Example 5, (4-Chlorophenyl)-[2-(2-pyridyl)-7,8-dihydro-5H-pyrido[4,3-d]pyrimidin-6-yl]methanone], the IC50 worked out at 11.4 µM.
In the case of `COc1c(F)cc(C(=O)N2CCc3nc(-c4ccccn4)ncc3C2)cc1F` [Example 30, (3,5-Difluoro-4-methoxy-phenyl)-[2-(2-pyridyl)-7,8-dihydro-5H-pyrido[4,3-d]pyrimidin-6-yl]methanone] it was 25.2 µM.
In the case of `CCOc1cc(OCC)cc(C(=O)N2CCc3nc(-c4ccccn4)ncc3C2)c1` [Example 17, (3,5-Diethoxyphenyl)-[2-(2-pyridyl)-7,8-dihydro-5H-pyrido[4,3-d]pyrimidin-6-yl]methanone] it was 7.66 µM.
As for `COc1cc(OC)cc(C(=O)N2CCc3nc(-c4ccccn4)ncc3C2)c1` [Example 19, (3,5-Dimethoxyphenyl)-[2-(2-pyridyl)-7,8-dihydro-5H-pyrido[4,3-d]pyrimidin-6-yl]methanone], the IC50 is 8.99 µM.
Take `O=C(c1ccc(F)c(F)c1)N1CCc2nc(-c3ccccn3)ncc2C1` [Example 10, (3,4-Difluorophenyl)-[2-(2-pyridyl)-7,8-dihydro-5H-pyrido[4,3-d]pyrimidin-6-yl]methanone]: the 50% inhibitory concentration (IC50) came to 26.2 µM.
On to `Cc1ccc(C(=O)N2CCc3nc(-c4ccccn4)ncc3C2)nc1` [Example 27, (5-Methyl-2-pyridyl)-[2-(2-pyridyl)-7,8-dihydro-5H-pyrido[4,3-d]pyrimidin-6-yl]methanone], for which the 50% inhibitory concentration (IC50) turned out to be 24.2 µM.
Regarding `Cc1ccc(C(=O)N2CCc3nc(-c4ccccn4)ncc3C2)cn1` [Example 31, (6-Methyl-3-pyridyl)-[2-(2-pyridyl)-7,8-dihydro-5H-pyrido[4,3-d]pyrimidin-6-yl]methanone], the IC50 was 31.9 µM.
For `COc1ccc2[nH]nc(C(=O)N3CCc4nc(-c5ncccn5)ncc4C3C)c2c1` (stereo not drawn) [Example 66, (5-Methoxy-1H-indazol-3-yl)-(5-methyl-2-pyrimidin-2-yl-7,8-dihydro-5H-pyrido[4,3-d]pyrimidin-6-yl)methanone], the half-inhibitory concentration (IC50) stood at 1.36 µM.
Turning to `COc1ccc(C(=O)N2CCc3nc(-c4ccccn4)ncc3C2)cc1F` [Example 7, (3-Fluoro-4-methoxy-phenyl)-[2-(2-pyridyl)-7,8-dihydro-5H-pyrido[4,3-d]pyrimidin-6-yl]methanone], the IC50 turned out to be 4.86 µM.
For `COc1cc(C(=O)N2CCc3nc(-c4ccccn4)ncc3C2)ccc1F` [Example 9, (4-Fluoro-3-methoxy-phenyl)-[2-(2-pyridyl)-7,8-dihydro-5H-pyrido[4,3-d]pyrimidin-6-yl]methanone], the IC50 amounted to 11.5 µM.
With `O=C(c1ccc(O)c(F)c1)N1CCc2nc(-c3ccccn3)ncc2C1` [Example 12, (3-Fluoro-4-hydroxy-phenyl)-[2-(2-pyridyl)-7,8-dihydro-5H-pyrido[4,3-d]pyrimidin-6-yl]methanone] the figure was 21.4 µM; with `Cc1ccsc1C(=O)N1CCc2nc(-c3ccccn3)ncc2C1C` (stereo not drawn) [Example 50, [5-Methyl-2-(2-pyridyl)-7,8-dihydro-5H-pyrido[4,3-d]pyrimidin-6-yl]-(3-methyl-2-thienyl)methanone], 27.7 µM.
As for `CC1c2cnc(-c3ncccn3)nc2CCN1C(=O)c1n[nH]c2ccc(F)cc12` (stereo not drawn) [Example 64, (5-Fluoro-1H-indazol-3-yl)-(5-methyl-2-pyrimidin-2-yl-7,8-dihydro-5H-pyrido[4,3-d]pyrimidin-6-yl)methanone], the half-inhibitory concentration (IC50) came to 0.21 µM.
Turning to `O=C(c1ccc([N+](=O)[O-])cc1)N1CCc2nc(-c3ccccn3)ncc2C1` [Example 3, (4-Nitrophenyl)-[2-(2-pyridyl)-7,8-dihydro-5H-pyrido[4,3-d]pyrimidin-6-yl]methanone], the IC50 is 27.3 µM.
With `CC1c2cnc(-c3ccccn3)nc2CCN1C(=O)c1ncco1` (stereo not drawn) [Example 60, [5-Methyl-2-(2-pyridyl)-7,8-dihydro-5H-pyrido[4,3-d]pyrimidin-6-yl]-oxazol-2-yl-methanone] the figure was 2.61 µM; with `Cc1cnc(C(=O)N2CCc3nc(-c4ccccn4)ncc3C2C)s1` (stereo not drawn) [Example 55, [5-Methyl-2-(2-pyridyl)-7,8-dihydro-5H-pyrido[4,3-d]pyrimidin-6-yl]-(5-methylthiazol-2-yl)methanone], 0.223 µM; with `O=C(c1ccc(C(F)(F)F)cc1)N1CCc2nc(-c3ccccn3)ncc2C1` [Example 1, [2-(2-Pyridyl)-7,8-dihydro-5H-pyrido[4,3-d]pyrimidin-6-yl]-[4-(trifluoromethyl)phenyl]methanone], 15.7 µM.
`COc1ccc(C(=O)N2CCc3nc(-c4ccccn4)ncc3C2)nc1` [Example 29, (5-Methoxy-2-pyridyl)-[2-(2-pyridyl)-7,8-dihydro-5H-pyrido[4,3-d]pyrimidin-6-yl]methanone]: the IC50 turned out to be 34.2 µM.
